Consider 30 compounds from patent US9387200B2, “Isothiazole-pyridine derivatives as modulators of HIF (hypoxia inducible factor) activity” (FibroGen, Inc., priority 2008, dated 2016).

As a reminder, the inhibition is how much of the control response was suppressed. High values mean a response far below the control, low ones a response near the control.

The target in the first assay is T1, HIF-PH2 (Homo sapiens, UniProt Q9GZT9).
T1 construct: made in house; host or cells: insect Hi5 cells
T1 sequence (Q9GZT9 whole entry, species assumed): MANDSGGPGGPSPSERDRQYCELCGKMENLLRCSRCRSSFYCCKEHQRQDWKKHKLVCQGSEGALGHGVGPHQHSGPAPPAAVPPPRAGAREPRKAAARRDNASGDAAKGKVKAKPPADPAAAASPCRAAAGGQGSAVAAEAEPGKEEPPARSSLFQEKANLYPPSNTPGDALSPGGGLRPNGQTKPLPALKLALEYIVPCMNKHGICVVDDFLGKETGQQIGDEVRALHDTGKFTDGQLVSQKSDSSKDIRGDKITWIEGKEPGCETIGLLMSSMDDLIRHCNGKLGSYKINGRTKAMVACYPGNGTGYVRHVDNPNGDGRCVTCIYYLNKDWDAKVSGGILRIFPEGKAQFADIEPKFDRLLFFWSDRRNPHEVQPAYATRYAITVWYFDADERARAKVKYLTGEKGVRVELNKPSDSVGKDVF
Description: HIF-PH assay (14CO2 capture, peptide-dependent turnover). The note with it: compound concentration 22.22 μM. Format: biochemical. The text has this: Ketoglutaric acid α-[1-^14C]-sodium salt, alpha-ketoglutaric acid sodium salt, and HPLC purified peptide may be obtained from commercial sources, e.g., Perkin-Elmer (Wellesley Mass.), Sigma-Aldrich, and SynPep Corp. (Dublin Calif.), respectively. Peptides for use in the assay may be fragments of HIFα as described above or as disclosed in International Publication WO 2005/118836, incorporated by reference herein. For example, a HIF peptide for use in the HIF-PH assay is [methoxycoumarin]-DLDLEALAPYIPADDDFQL-amide. HIF-PH, e.g., HIF-PH2 (EGLN1), can be expressed in, e.g., insect Hi5 cells, and partially purified, e.g., through a SP ion exchange chromatography column. Enzyme activity is determined by capturing ^14CO2 using an assay described by Kivirikko and Myllyla (1982, Methods Enzymol. 82:245-304). Assay reactions contain 50 mM HEPES (pH 7.4), 100 μM α-ketoglutaric acid sodium salt, 0.30 μCi/mL ketoglutaric acid α-[1-^14C]-sodium salt, 40 μM FeSO4, 1 mM ascorbate, 1541.8 units/mL Catalase, with or without 50 μM peptide substrate and various concentrations of compound of the invention. Reactions are initiated by addition of HIF-PH enzyme.
The peptide-dependent percent turnover is calculated by subtracting percent turnover in the absence of peptide from percent turnover in the presence of substrate peptide. Percent inhibition and IC50 are calculated using peptide-dependent percent turnover at given inhibitor concentrations. Calculation of IC50 values for each inhibitor is conducted using GraFit software (Erithacus Software Ltd., Surrey UK).
Representative compounds of the invention were analyzed using the HIF-PH assay described above. Table I below presents enzyme inhibition data for exemplary compounds against HIF-PH2, a representative HIF prolyl hydroxylase enzyme. By inhibiting HIF prolyl hydroxylase enzymes, compounds of the invention stabilize HIFα, which then combines with HIFβ to form an active transcription factor that increases expression of various genes involved in numerous beneficial cellular processes.
Compound `O=C(O)CNC(=O)c1nc(-c2cn(Cc3ccccc3)nn2)c2snc(-c3ccc(Cl)cc3)c2c1O` [Example 23, {[7-(1-Benzyl-1H-[1,2,3]triazol-4-yl)-3-(4-chloro-phenyl)-4-hydroxy-isothiazolo[5,4-c]pyridine-5-carbonyl]-amino}-acetic acid] gave an inhibition at 22.22 µM of 100%. On the same count and under the same terms, next, `O=C(O)CNC(=O)c1nc(-c2cccc3ccccc23)c2snc(-c3ccc(Cl)cc3)c2c1O` [Example 24, {[3-(4-Chloro-phenyl)-4-hydroxy-7-naphthalen-1-yl-isothiazolo[5,4-c]pyridine-5-carbonyl]-amino}-acetic acid]: 96%; `N#Cc1ccc(-c2nc(C(=O)NCC(=O)O)c(O)c3c(-c4ccc(F)cc4)nsc23)cc1` [Example 11, {[7-(4-Cyano-phenyl)-3-(4-fluoro-phenyl)-4-hydroxy-isothiazolo[5,4-c]pyridine-5-carbonyl]-amino}-acetic acid]: 91.5%.

The compound `N#Cc1nc(C(=O)NCC(=O)O)c(O)c2c(-c3ccc(F)cc3)nsc12` [Example 8, {[7-Cyano-3-(4-fluoro-phenyl)-4-hydroxy-isothiazolo[5,4-c]pyridine-5-carbonyl]-amino}-acetic acid] returned an inhibition at 22.22 µM of 98.3%. On the same count and under the same terms, under `Cc1nsc2c(O)c(C(=O)NCC(=O)O)nc(-c3ccccc3)c12` [Example 31, [(7-Hydroxy-3-methyl-4-phenyl-isothiazolo[4,5-c]pyridine-6-carbonyl)-amino]-acetic acid] stands 98%.

In turn, `O=C(O)CNC(=O)c1nc(-c2ccccc2)c2c(Cn3ccc4ccccc43)nsc2c1O` [Example 42, [(7-Hydroxy-3-indol-1-ylmethyl-4-phenyl-isothiazolo[4,5-c]pyridine-6-carbonyl)-amino]-acetic acid] gave an inhibition at 22.22 µM of 100%.

Still in this assay, the particulars now being: compound concentration 200 μM.
Compound `O=C(O)CNC(=O)c1nc(-c2cccnc2)c2snc(-c3ccccc3)c2c1O` [Example 3, [(4-Hydroxy-3-phenyl-7-pyridin-3-yl-isothiazolo[5,4-c]pyridine-5-carbonyl)-amino]-acetic acid] displayed an inhibition at 200 µM of 100%. Compound `CC(=O)c1nc(C(=O)NCC(=O)O)c(O)c2c(-c3ccc(Cl)cc3)nsc12` [Example 25, {[7-Acetyl-3-(4-chloro-phenyl)-4-hydroxy-isothiazolo[5,4-c]pyridine-5-carbonyl]-amino}-acetic acid] displayed an inhibition at 200 µM of 100%. As to `Cc1nsc2c(-c3cccnc3)nc(C(=O)NCC(=O)O)c(O)c12` [Example 37, [(4-Hydroxy-3-methyl-7-pyridin-3-yl-isothiazolo[5,4-c]pyridine-5-carbonyl)-amino]-acetic acid], testing at 200 µM gave an inhibition of 100%. As for `C#Cc1nc(C(=O)NCC(=O)O)c(O)c2c(C)nsc12` [Example 39, [(7-Ethynyl-4-hydroxy-3-methyl-isothiazolo[5,4-c]pyridine-5-carbonyl)-amino]-acetic acid], 200 µM produced 100% inhibition. With `Cc1nc(C(=O)NCC(=O)O)c(O)c2c(-c3ccccc3F)nsc12` [Example 36, {[3-(2-Fluoro-phenyl)-4-hydroxy-7-methyl-isothiazolo[5,4-c]pyridine-5-carbonyl]-amino}-acetic acid], at 200 µM the inhibition was 100%. Compound `O=C(O)CNC(=O)c1ncc2snc(-c3ccc(Cl)cc3)c2c1O` [Example 16, {[3-(4-Chloro-phenyl)-4-hydroxy-isothiazolo[5,4-c]pyridine-5-carbonyl]-amino}-acetic acid] came in with an inhibition at 200 µM of 99.9%.

Regarding `CCc1nc(C(=O)NCC(=O)O)c(O)c2snc(C)c12` [Example 47, [(4-Ethyl-7-hydroxy-3-methyl-isothiazolo[4,5-c]pyridine-6-carbonyl)-amino]-acetic acid], the inhibition at 200 µM came to 99%. The same measure, in the same setting: under `COc1ccc(-c2nc(C(=O)NCC(=O)O)c(O)c3c(-c4ccc(Cl)cc4)nsc23)cn1` [Example 21, {[3-(4-Chloro-phenyl)-4-hydroxy-7-(6-methoxy-pyridin-3-yl)-isothiazolo[5,4-c]pyridine-5-carbonyl]-amino}-acetic acid] stands 77%; under `O=C(O)CNC(=O)c1nc(-c2ccccn2)c2snc(-c3ccccc3)c2c1O` [Example 4, [(4-Hydroxy-3-phenyl-7-pyridin-2-yl-isothiazolo[5,4-c]pyridine-5-carbonyl)-amino]-acetic acid], 99.1%. Regarding `O=C(O)CNC(=O)c1nc(-c2ccc(F)cc2)c2snc(-c3ccccc3)c2c1O` [Example 1, {[7-(4-Fluoro-phenyl)-4-hydroxy-3-phenyl-isothiazolo[5,4-c]pyridine-5-carbonyl]-amino}-acetic acid], 200 µM produced 98% inhibition. Still for that read-out and setting: next, `Cc1nsc2c(-c3ccccc3)nc(C(=O)NCC(=O)O)c(O)c12` [Example 30, [(4-Hydroxy-3-methyl-7-phenyl-isothiazolo[5,4-c]pyridine-5-carbonyl)-amino]-acetic acid]: 100%. `O=C(O)CNC(=O)c1nc(-c2ccc(Oc3ccccc3)cc2)c2snc(-c3ccccc3F)c2c1O` [Example 35, {[3-(2-Fluoro-phenyl)-4-hydroxy-7-(4-phenoxy-phenyl)-isothiazolo[5,4-c]pyridine-5-carbonyl]-amino}-acetic acid] showed an inhibition at 200 µM of 100%.

`C#Cc1nc(C(=O)NCC(=O)O)c(O)c2c(-c3ccc(F)cc3)nsc12` [Example 6, {[7-Ethynyl-3-(4-fluoro-phenyl)-4-hydroxy-isothiazolo[5,4-c]pyridine-5-carbonyl]-amino}-acetic acid] returned an inhibition at 200 µM of 98.3%. The same measure, in the same setting: next, `O=C(O)CNC(=O)c1nc(Br)c2c(-c3ccccc3)nsc2c1O` [Example 27, [(4-Bromo-7-hydroxy-3-phenyl-isothiazolo[4,5-c]pyridine-6-carbonyl)-amino]-acetic acid]: 98%; `COc1ccc(-c2nc(C(=O)NCC(=O)O)c(O)c3c(-c4ccc(Cl)cc4)nsc23)cc1` [Example 13, {[3-(4-Chloro-phenyl)-4-hydroxy-7-(4-methoxy-phenyl)-isothiazolo[5,4-c]pyridine-5-carbonyl]-amino}-acetic acid]: 94.5%; `O=C(O)CNC(=O)c1nc(-c2ccccc2)c2snc(-c3ccc(Cl)cc3)c2c1O` [Example 17, {[3-(4-Chloro-phenyl)-4-hydroxy-7-phenyl-isothiazolo[5,4-c]pyridine-5-carbonyl]-amino}-acetic acid]: 98.7%.

`O=C(O)CNC(=O)c1nc(-c2ccccc2)c2snc(-c3ccccc3F)c2c1O` [Example 34, {[3-(2-Fluoro-phenyl)-4-hydroxy-7-phenyl-isothiazolo[5,4-c]pyridine-5-carbonyl]-amino}-acetic acid] yielded an inhibition at 200 µM of 100%. The same measure, in the same setting: under `O=C(O)CNC(=O)c1ncc2snc(-c3ccc(F)cc3)c2c1O` [Example 12, {[3-(4-Fluoro-phenyl)-4-hydroxy-isothiazolo[5,4-c]pyridine-5-carbonyl]-amino}-acetic acid] stands 98.9%; under `Cc1nc(C(=O)NCC(=O)O)c(O)c2c(-c3ccc(F)cc3)nsc12` [Example 9, {[3-(4-Fluoro-phenyl)-4-hydroxy-7-methyl-isothiazolo[5,4-c]pyridine-5-carbonyl]-amino}-acetic acid], 97.4%.

In the case of `C[C@H](NC(=O)c1ncc2snc(-c3ccc(Cl)cc3)c2c1O)C(=O)O` [Example 19, (S)-2-{[3-(4-Chloro-phenyl)-4-hydroxy-isothiazolo[5,4-c]pyridine-5-carbonyl]-amino}-propionic acid], the inhibition at 200 µM was found to be 100%.

As for `C[C@@H](NC(=O)c1ncc2snc(-c3ccc(Cl)cc3)c2c1O)C(=O)O` [Example 18, (R)-2-{[3-(4-Chloro-phenyl)-4-hydroxy-isothiazolo[5,4-c]pyridine-5-carbonyl]-amino}-propionic acid], the inhibition at 200 µM turned out to be 54%. The compound `C#Cc1nc(C(=O)NCC(=O)O)c(O)c2c(-c3ccc(Cl)cc3)nsc12` [Example 14, {[3-(4-Chloro-phenyl)-7-ethynyl-4-hydroxy-isothiazolo[5,4-c]pyridine-5-carbonyl]-amino}-acetic acid] returned an inhibition at 200 µM of 100%. The same measure, in the same setting: next, `Cc1nsc2c(-c3ccccn3)nc(C(=O)NCC(=O)O)c(O)c12` [Example 38, [(4-Hydroxy-3-methyl-7-pyridin-2-yl-isothiazolo[5,4-c]pyridine-5-carbonyl)-amino]-acetic acid]: 74%. Regarding `COc1ccc(-c2nc(C(=O)NCC(=O)O)c(O)c3c(-c4ccccc4)nsc23)cc1` [Example 2, {[4-Hydroxy-7-(4-methoxy-phenyl)-3-phenyl-isothiazolo[5,4-c]pyridine-5-carbonyl]-amino}-acetic acid], the inhibition at 200 µM was 97.9%.
